Source: patent US20180343857A1, “BIOSOLUBILIZER” (SOLIANCE, priority 2012, published 2018)
Counter-ions that a name gives are not always drawn.

System: Avena Fatua
Assay: Biological effectiveness of glyphosate with extemporaneous adjuvant (biomass reduction curves)
Type: in vivo
Conditions: Avena Fatua in pots; glyphosate 50 to 650 g equivalent acid per hectare; dry biomass 3 weeks after treatment; R = 1 for herbicide without adjuvant
From the text: The preparation of example 2.4 containing terpenic alcohols solubilised by sophorolipids is used as an extemporaneous adjuvant of glyphosate. Glyphosate is a non-selective herbicide, the definition and use of which are described in particular in “The biochemistry and uses of pesticides, 2nd edition” by Kenneth A. Hassall published by VCH (1990). An extemporaneous adjuvant is a preparation added to the phytosanitary preparation at the moment of application and is used to reinforce the action of the latter.
The glyphosate used is a solution of glyphosate in the form of isopropylamine salt titrated to 620 g/l equivalent glyphosate acid.
The effectiveness of the preparation according to the invention is assessed by forming curves of biological effectiveness, that is by determining the ability of the preparations to reduce the biomass of a target plant as a function of the concentration of herbicide. […]
where Y is the dry biomass of the plant (plant cut at the base and dried 24 h at 110° C. in a ventilated heat chamber), X is the concentration of herbicide expressed in grams of glyphosate acid per hectare. C, D, a and b being factors determined by analysing the curve according to the least squares method. […] Its value is determined by applying the above equation with the parameters D, C, a and b of the curve of the herbicide without adjuvant (R=1) according to the least squares method. […]

## O=C(O)CNCP(=O)(O)O [Glyphosate (iso-propylamine salt), Glyphosate]
  R (factor of effectiveness): 1
